# From publication PMC10423561, “Effects of the CYP3A inhibitors, voriconazole, itraconazole, and fluconazole on the pharmacokinetics of osimertinib in rats” (PeerJ, 2023)
# Values joined by “and” are separate entries in the source; they are usually repeats but may differ in a detail not shown here. Identical values can stand only once. Like-named read-outs stand apart in the source and are kept apart here.
# Legend:
# [1] = Pharmacokinetic study of OSIM in rats, alone or after voriconazole, itraconazole or fluconazole pretreatment (plasma concentration by HPLC-MS/MS); format: in vivo, Sprague-Dawley rats; design: Conc. (plasma): unit not given here; conditions: for Conc. (plasma): individual rats; for AUC(0-inf) / AUC(0-t) / CL/F / Cmax / Tmax / Vd/F / half-life / MRT inf: male, Sprague-Dawley, rat, plasma, po, 10 mg/kg; for Vd/F: read-out: Vz/F; for MRT inf: read-out: MRT0–inf
# Experimental: A liquid chromatography with tandem mass spectrometry (HPLC-MS/MS) system coupled to a JasperTM HPLC and Triple […] and equipped with an electrospray ionization (ESI) interface source (AB Sciex, Redwood City, CA, USA) was used for the analysis. […] Waters Corp., Milford, MA, USA) maintained at 45 °C. Mobile phase A was 0.2% formic acid in water, and mobile phase B was acetonitrile. […] Carry-over was minimized with methanol-acetonitrile-isopropanol-water solution (1:1:1:1, v/v/v/v) before and after the injection procedure. […] Subsequently, all samples were vortex-mixed for 30 s and were centrifuged at 14,000 × g for 10 min. Finally, each sample was reconstituted with an aliquot of mobile phase A. The sample was transferred to a 0.8 mL 96-well plate, of which 5 μL was injected into HPLC-MS/MS system for analysis. Twenty-four adult male Sprague-Dawley rats (220 ± 20 g) with specific pathogen free were supplied by the Laboratory Animal Center of Zhejiang Provincial People's Hospital. […] The study was performed in accordance with the Animal Care and Use Committee of Zhejiang Provincial People's Hospital (number: […], and FCZ were prepared in 0.3% carboxymethyl cellulose sodium (CMC-Na). After 12 h of fasting and free water consumption, the rats were randomly separated into four groups, and the sample size was based on a similar study using as few rats as possible (n = 6): control (equivalent volume of 0.3% CMC-Na), VCZ (20 mg/kg), ICZ (20 mg/kg), and FCZ (20 mg/kg) groups. Only those responsible for treatment management researchers know this group well. Each group was housed in a single cage. The rats in the four groups were orally dosed once daily with 0.3% CMC-Na, VCZ, ICZ, or FCZ, respectively; they reached steady-state exposure after five continuous days of dosing. […] All rats received an oral gavage dose of approximately equivalent volume treatment regimens (one mL). Rats were restrained on the rat fixator on the laboratory bench. […] Experimental data were given as mean ± standard deviation (SD). The mean concentration levels of OSIM versus time profile were drawn using GraphPad Prism 9.4 (GraphPad Software, Inc., San Diego, CA, USA). […] SPSS 26.0 was used for statistical analysis (IBM, Armonk, USA). Significant differences among the groups were identified using one-way ANOVA and Tukey test. P < 0.05 was considered significant.
# [2] = design: method as in Brown et al., 2017; conditions: with ICZ compared with OSIM administered alone; ref Brown et al., 2017; cited from earlier work
# [3] = ICZ group vs control, rats, P < 0.05
# [4] = OSIM 10 mg/kg oral after fluconazole 20 mg/kg oral once daily for 5 days, rats, n = 6
# [5] = OSIM 10 mg/kg oral after voriconazole 20 mg/kg oral once daily for 5 days, rats, n = 6
# [6] = co-administered with itraconazole vs control, rats
# [7] = co-administration with VCZ vs OSIM alone, rats
# [8] = co-administration with fluconazole vs control, rats
# [9] = OSIM 10 mg/kg oral after itraconazole 20 mg/kg oral once daily for 5 days, rats, n = 6
# [10] = OSIM 10 mg/kg oral, control (0.3% CMC-Na), rats, n = 6, mean ± SD
smiles,measurement,setting,value
"C=CC(=O)Nc1cc(Nc2nccc(-c3cn(C)c4ccccc34)n2)c(OC)cc1N(C)CCN(C)C [OSIM, Osimertinib]",Conc. (plasma),"[1]; Con group (OSIM alone), Time 0.25",8.0671 and 11.9979
same,Conc. (plasma),"[1]; Con group (OSIM alone), Time 0.5",12.1988 and 19.9452
same,Conc. (plasma),"[1]; Con group (OSIM alone), Time 1",26.2008 and 25.1352
same,Conc. (plasma),"[1]; Con group (OSIM alone), Time 2",34.4763 and 31.6327
same,Conc. (plasma),"[1]; Con group (OSIM alone), Time 4",32.976 and 28.9864
same,Conc. (plasma),"[1]; Con group (OSIM alone), Time 5",24.2861 and 21.3664
same,Conc. (plasma),"[1]; Con group (OSIM alone), Time 6",16.055 and 19.5716 and 16.4633
same,Conc. (plasma),"[1]; Con group (OSIM alone), Time 8",9.5939 and 12.9324 and 12.4752
same,Conc. (plasma),"[1]; Con group (OSIM alone), Time 12",3.1238 and 5.2228 and 5.1031
same,Conc. (plasma),"[1]; Con group (OSIM alone), Time 24",0.3493 and 0.667
same,Conc. (plasma),"[1]; Con group (OSIM alone), Time 48",0.1948 and 0.7004
same,AUC0–t of OSIM enhanced by,"[1]; FCZ group vs control, rats",~1.01 fold
same,Cmax of OSIM enhanced by,"[1]; FCZ group vs control, rats",approximately 0.53 fold
same,reduction of Cl/F of OSIM,"[1]; FCZ group vs control, rats",49.49%
same,reduction of Vz/F of OSIM,"[1]; FCZ group vs control, rats",55.89%
same,Conc. (plasma),"[1]; Flu group (fluconazole pretreatment), Time 0.25",7.8097 and 15.8697
same,Conc. (plasma),"[1]; Flu group (fluconazole pretreatment), Time 0.5",11.781 and 29.3217
same,Conc. (plasma),"[1]; Flu group (fluconazole pretreatment), Time 1",19.1216
same,Conc. (plasma),"[1]; Flu group (fluconazole pretreatment), Time 2",33.0063 and 43.3299
same,Conc. (plasma),"[1]; Flu group (fluconazole pretreatment), Time 3",39.5899 and 53.0362
same,Conc. (plasma),"[1]; Flu group (fluconazole pretreatment), Time 4",43.6983 and 40.9109
same,Conc. (plasma),"[1]; Flu group (fluconazole pretreatment), Time 5",33.9054 and 36.7921
same,Conc. (plasma),"[1]; Flu group (fluconazole pretreatment), Time 6",33.9688
same,Conc. (plasma),"[1]; Flu group (fluconazole pretreatment), Time 8",18.8994 and 29.246 and 22.772
same,Conc. (plasma),"[1]; Flu group (fluconazole pretreatment), Time 12",8.5799 and 18.5501 and 14.3797
same,Conc. (plasma),"[1]; Flu group (fluconazole pretreatment), Time 24",1.2033 and 2.0928 and 2.1757
same,Conc. (plasma),"[1]; Flu group (fluconazole pretreatment), Time 48",0.3201 and 0.2978
same,decrease in Vz/F of OSIM,[1]; [3],38.08%
same,decrease in t1/2 of OSIM,[1]; [3],25.41%
same,Conc. (plasma),"[1]; Itr group (itraconazole pretreatment), Time 0.25",5.2753 and 10.1717
same,Conc. (plasma),"[1]; Itr group (itraconazole pretreatment), Time 0.5",2.137 and 22.1484
same,Conc. (plasma),"[1]; Itr group (itraconazole pretreatment), Time 1",14.402 and 30.439
same,Conc. (plasma),"[1]; Itr group (itraconazole pretreatment), Time 2",19.1571 and 37.1482
same,Conc. (plasma),"[1]; Itr group (itraconazole pretreatment), Time 3",31.5023
same,Conc. (plasma),"[1]; Itr group (itraconazole pretreatment), Time 4",27.9801
same,Conc. (plasma),"[1]; Itr group (itraconazole pretreatment), Time 5",22.7144 and 26.9275
same,Conc. (plasma),"[1]; Itr group (itraconazole pretreatment), Time 6",27.5418 and 15.763 and 19.3207
same,Conc. (plasma),"[1]; Itr group (itraconazole pretreatment), Time 8",24.0911 and 10.4766 and 13.0808
same,Conc. (plasma),"[1]; Itr group (itraconazole pretreatment), Time 12",4.7714 and 7.383
same,Conc. (plasma),"[1]; Itr group (itraconazole pretreatment), Time 24",1.7983 and 0.7083 and 1.0943
same,Conc. (plasma),"[1]; Itr group (itraconazole pretreatment), Time 48",0.2444 and 0.2377
same,MRT0–inf,[1]; [4],8.32 ± 0.47 h
same,t1/2,[1]; [4],5.75 ± 0.25 h
same,t1/2,[1]; [5],3.82 ± 0.34 h
same,decrease in Cl/F of OSIM,"[1]; VCZ group vs control, rats",37.74%
same,decrease in Vz/F of OSIM,"[1]; VCZ group vs control, rats",64.03%
same,decrease in t1/2 of OSIM,"[1]; VCZ group vs control, rats",42.56%
same,"other parameters (Cmax, Tmax, AUC, MRT, and Cl/F) compared with the control group","[1]; administration of OSIM with ICZ, rats",not significantly different
same,increase in AUC0–t of OSIM,[1]; [6],34.80%
same,increase in Cmax of OSIM,[1]; [6],13.91%
same,effect on t1/2 and Tmax of orally administered OSIM,"[1]; co-administration with FCZ vs control, rats",did not significantly alter
same,increase in AUC0–t of OSIM,[1]; [7],62.56%
same,increase in Cmax of OSIM,[1]; [7],58.04%
same,increase in AUC0–t of OSIM,[1]; [8],100.98%
same,increase in Cmax of OSIM,[1]; [8],53.45%
same,AUC(0-inf),[1]; [4],524 ± 92.4 ng·h/mL
same,AUC(0-t),[1]; [4],521 ± 92.5 ng·h/mL
same,CL/F,[1]; [4],325 mL/min/kg
same,Cmax,[1]; [4],50.8 ± 8.41 ng/mL
same,Tmax,[1]; [4],3.17 ± 0.98 h
same,Vd/F,[1]; [4],162 ± 26.7 L/kg
same,AUC(0-inf),[1]; [9],357 ± 99.7 ng·h/mL
same,AUC(0-t),[1]; [9],350 ± 96.3 ng·h/mL
same,CL/F,[1]; [9],504 mL/min/kg
same,Cmax,[1]; [9],37.7 ± 11.5 ng/mL
same,Tmax,[1]; [9],3.83 ± 1.6 h
same,half-life,[1]; [9],4.96 ± 1.1 h
same,MRT inf,[1]; [9],7.51 ± 0.6 h
same,Vd/F,[1]; [9],228 ± 127 L/kg
same,AUC(0-inf),[1]; [5],422 ± 57.9 ng·h/mL
same,AUC(0-t),[1]; [5],422 ± 58.4 ng·h/mL
same,CL/F,[1]; [5],401 mL/min/kg
same,Cmax,[1]; [5],52.3 ± 10.5 ng/mL
same,Tmax,[1]; [5],2.83 ± 0.41 h
same,MRT inf,[1]; [5],6.83 ± 0.36 h
same,Vd/F,[1]; [5],132 ± 17.9 L/kg
same,AUC(0-inf),[1]; [10],264 ± 34.4 ng·h/mL
same,AUC(0-t),[1]; [10],259 ± 33.1 ng·h/mL
same,CL/F,[1]; [10],644 mL/min/kg
same,Cmax,[1]; [10],33.1 ± 3.66 ng/mL
same,Tmax,[1]; [10],2.33 ± 0.52 h
same,half-life,[1]; [10],6.65 ± 0.48 h
same,MRT inf,[1]; [10],7.61 ± 0.74 h
same,Vd/F,[1]; [10],368 ± 36.3 L/kg
same,Conc. (plasma),"[1]; vor group (voriconazole pretreatment), Time 0.25",7.2019 and 17.8367
same,Conc. (plasma),"[1]; vor group (voriconazole pretreatment), Time 0.5",35.8513
same,Conc. (plasma),"[1]; vor group (voriconazole pretreatment), Time 1",38.47
same,Conc. (plasma),"[1]; vor group (voriconazole pretreatment), Time 2",40.5898 and 38.9958
same,Conc. (plasma),"[1]; vor group (voriconazole pretreatment), Time 3",68.6321 and 46.961
same,Conc. (plasma),"[1]; vor group (voriconazole pretreatment), Time 4",35.6688 and 44.311
same,Conc. (plasma),"[1]; vor group (voriconazole pretreatment), Time 5",28.7864 and 35.6992
same,Conc. (plasma),"[1]; vor group (voriconazole pretreatment), Time 6",35.4312 and 22.8434 and 29.124
same,Conc. (plasma),"[1]; vor group (voriconazole pretreatment), Time 8",20.9535 and 15.9897 and 16.5811
same,Conc. (plasma),"[1]; vor group (voriconazole pretreatment), Time 12",10.8434 and 7.3402 and 9.397
same,Conc. (plasma),"[1]; vor group (voriconazole pretreatment), Time 24",0.9533 and 0.6206
same,Conc. (plasma),"[1]; vor group (voriconazole pretreatment), Time 48",0.0227 and 0.021
same,increase in AUC0–t of OSIM,[2],approximately 8%
